Measured values from patent US10167262B2, “Herbicidal substituted 3-arylpyrazoles” (FMC CORPORATION, priority 2014, dated 2019).

Experiments:
Type in all cases: in vivo
[1] = tested on: barnyardgrass (Echinochloa crus-galli); test: Test B flooded paddy test, plant response rating 0-100; settings: Flood, 250 g ai/ha; scale 0 to 100 (0 no effect, 100 complete control); 13 to 15 days
How it was run: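 In-water treatment: compound dosed into 3 cm flood over soil, water level unchanged throughout. Controls run alongside; visual assessment at day 13–15.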

[2] = tested on: Brazilian crabgrass (Digitaria horizontalis); test: Test E pre-/postemergence greenhouse test, plant response rating 0-100; settings: Digitaria horizontalis, post-emergence, Postemergence, scale 0 to 100, read-out: Plant response rating, Crabgrass, Brazil
Text: (§1) Seeds of plant species selected from corn (Zea mays), soybean (Glycine max), velvetleaf (Abutilon theophrasti), lambsquarters (Chenopodium album), wild poinsettia (Euphorbia heterophylla), palmer pigweed (Amaranthus palmeri), waterhemp (common waterhemp, Amaranthus rudis), surinam grass (Brachiaria decumbens), large (Lg) crabgrass (Digitaria sanguinalis), Brazilian crabgrass (Digitaria horizontalis), fall panicum (Panicum dichotomiflorum), giant foxtail (Setaria faberii), green foxtail (Setaria viridis), goosegrass (Eleusine indica), johnsongrass (Sorghum halepense), ragweed (common ragweed, Ambrosia elatior), barnyardgrass (Echinochloa crus-galli), sandbur (southern sandbur, Cenchrus echinatus), arrowleaf sida (Sida rhombifolia), Italian ryegrass (Lolium multiflorum), dayflower (Virginia (VA) dayflower, Commelina virginica), field bindweed (Convolvulus arvensis), morningglory (Ipomoea coccinea), nightshade (eastern black nightshade, Solanum ptycanthum), kochia (Kochia scoparia), yellow nutsedge (Cyperus esculentus), smartweed (ladysthumb smartweed, Polygonum persicaria), cocklebur (common cocklebur, Xanthium strumarium), and hairy beggarticks (Bidens pilosa), were planted into a silt loam soil and treated preemergence with test chemicals formulated in a non-phytotoxic solvent mixture which included a surfactant.
(§2) At the same time, plants from these crop and weed species and also waterhemp_RES1, (ALS & Triazine resistant common waterhemp, Amaranthus rudis), and waterhemp_RES2, (ALS & HPPD resistant common waterhemp, Amaranthus rudis) were planted in pots containing Redi-Earth® planting medium (Scotts Company, 14111 Scottslawn Road, Marysville, Ohio 43041) comprising spaghnum peat moss, vermiculite, wetting agent and starter nutrients were treated with postemergence applications of test chemicals formulated in the same manner. Plants ranged in height from 2 to 18 cm for postemergence treatments (1- to 4-leaf stage).
(§3) Treated plants and controls were maintained in a greenhouse for 14 to 21 days, after which time all species were compared to controls and visually evaluated. Plant response ratings, summarized in Table E, are based on a scale of 0 to 100 where 0 is no effect and 100 is complete control. A dash (-) response means no test result.

[3] = tested on: Italian ryegrass (Lolium multiflorum); test: as above; settings: Lolium multiflorum, post-emergence, Postemergence, scale 0 to 100
Text: as §1, §2, §3

[4] = tested on: arrowleaf sida (Sida rhombifolia); test: as above; settings: scale 0 to 100
Text: as §1, §2, §3

[5] = tested on: barnyardgrass (Echinochloa crus-galli); test: as above; settings: Echinochloa crus-galli, post-emergence, Postemergence, scale 0 to 100
Text: as §1, §2, §3

[6] = tested on: corn (Zea mays); test: as above; settings: scale 0 to 100
Text: as §1, §2, §3

[7] = tested on: dayflower (Virginia (VA) dayflower, Commelina virginica); test: as above; settings: scale 0 to 100
Text: as §1, §2, §3

[8] = tested on: fall panicum (Panicum dichotomiflorum); test: as above; settings: Panicum dichotomiflorum, post-emergence, Postemergence, scale 0 to 100
Text: as §1, §2, §3

[9] = tested on: hairy beggarticks (Bidens pilosa); test: as above; settings: Preemergence, scale 0 to 100
Text: as §1, §2, §3

[10] = tested on: palmer pigweed (Amaranthus palmeri); test: as above; settings: scale 0 to 100; for Pigweed, Palmer plant response rating: Preemergence
Text: as §1, §2, §3

[11] = tested on: sandbur (southern sandbur, Cenchrus echinatus); test: as above; settings: Cenchrus echinatus, post-emergence, Postemergence, scale 0 to 100
Text: as §1, §2, §3

[12] = tested on: wild poinsettia (Euphorbia heterophylla); test: as above; settings: scale 0 to 100; for Poinsettia, Wild plant response rating: Preemergence
Text: as §1, §2, §3

## CCOC(OCC)(c1cccs1)c1c[nH]nc1-c1cc(Cl)cc(Cl)c1 [Compound 27]
[1]
  Plant response rating, Barnyardgrass: 0

## CCn1cc(C(=O)c2ccccc2)c(-c2cc(Br)cc(Br)c2)n1 [Compound 38]
[1]
  Plant response rating, Barnyardgrass: 0

## CC(C)n1cc(C(=O)c2ccccc2)c(-c2cc(Cl)cc(Cl)c2)n1 [Compound 44]
[1]
  Plant response rating, Barnyardgrass: 0

## Cn1cc(C(=O)c2ccccc2)c(-c2cc(Br)cc(Br)c2)n1 [Compound 53]
[1]
  Plant response rating, Barnyardgrass: 0

## Cn1cc(C(=O)c2ccccc2)c(-c2cc(Cl)cc(Cl)c2)n1 [Compound 54, [3-(3,5-dichlorophenyl)-1-methyl-1H-pyrazol-4-yl]phenylmethanone]
[2]; 16 g ai/ha
  pest or weed control at 16 g/ha: 0%
[2]; 31 g ai/ha
  pest or weed control at 31 g/ha: 0%
[2]; 62 g ai/ha
  pest or weed control at 62 g/ha: 0%
[2]; 125 g ai/ha
  pest or weed control at 125 g/ha: 0%
[2]; 250 g ai/ha
  pest or weed control at 250 g/ha: 0%
[3]; 31 g ai/ha
  pest or weed control at 31 g/ha: 0%
[3]; 62 g ai/ha
  pest or weed control at 62 g/ha: 0%
[3]; 125 g ai/ha
  pest or weed control at 125 g/ha: 0%
[3]; 250 g ai/ha
  pest or weed control at 250 g/ha: 0%
[4]; Preemergence, 125 g ai/ha
  Arrowleaf Sida plant response rating: 43
[4]; Preemergence, 250 g ai/ha
  Arrowleaf Sida plant response rating: 80
[4]; Sida rhombifolia, post-emergence, Postemergence, 16 g ai/ha
  pest or weed control at 16 g/ha: 30%
[4]; Sida rhombifolia, post-emergence, Postemergence, 31 g ai/ha
  pest or weed control at 31 g/ha: 50%
[4]; Sida rhombifolia, post-emergence, Postemergence, 62 g ai/ha
  pest or weed control at 62 g/ha: 50%
[4]; Sida rhombifolia, post-emergence, Postemergence, 125 g ai/ha
  pest or weed control at 125 g/ha: 65%
[4]; Sida rhombifolia, post-emergence, Postemergence, 250 g ai/ha
  pest or weed control at 250 g/ha: 75%
[4]; Sida rhombifolia, pre-emergence, Preemergence, 1000 g ai/ha
  pest or weed control at 1000 g/ha: 100%
[5]; 16 g ai/ha
  pest or weed control at 16 g/ha: 0%
[5]; 31 g ai/ha
  pest or weed control at 31 g/ha: 0%
[5]; 62 g ai/ha
  pest or weed control at 62 g/ha: 0%
[5]; 125 g ai/ha
  pest or weed control at 125 g/ha: 0%
[5]; 250 g ai/ha
  pest or weed control at 250 g/ha: 0%
[6]; Preemergence, 125 g ai/ha
  Corn plant response rating: 0
[6]; Preemergence, 250 g ai/ha
  Corn plant response rating: 0
[6]; Zea mays, post-emergence, Postemergence, 16 g ai/ha
  Corn plant response rating (crop injury, 0 = no effect, 100 = complete kill) at 16 g/ha: 0%
[6]; Zea mays, post-emergence, Postemergence, 31 g ai/ha
  Corn plant response rating (crop injury, 0 = no effect, 100 = complete kill) at 31 g/ha: 0%
[6]; Zea mays, post-emergence, Postemergence, 62 g ai/ha
  Corn plant response rating (crop injury, 0 = no effect, 100 = complete kill) at 62 g/ha: 0%
[6]; Zea mays, post-emergence, Postemergence, 125 g ai/ha
  Corn plant response rating (crop injury, 0 = no effect, 100 = complete kill) at 125 g/ha: 0%
[6]; Zea mays, post-emergence, Postemergence, 250 g ai/ha
  Corn plant response rating (crop injury, 0 = no effect, 100 = complete kill) at 250 g/ha: 0%
[6]; Zea mays, pre-emergence, Preemergence, 1000 g ai/ha
  Corn plant response rating (crop injury, 0 = no effect, 100 = complete kill) at 1000 g/ha: 0%
[7]; Commelina virginica, post-emergence, Postemergence, 16 g ai/ha
  pest or weed control at 16 g/ha: 0%
[7]; Commelina virginica, post-emergence, Postemergence, 31 g ai/ha
  pest or weed control at 31 g/ha: 0%
[7]; Commelina virginica, post-emergence, Postemergence, 62 g ai/ha
  pest or weed control at 62 g/ha: 0%
[7]; Commelina virginica, post-emergence, Postemergence, 125 g ai/ha
  pest or weed control at 125 g/ha: 0%
[7]; Commelina virginica, post-emergence, Postemergence, 250 g ai/ha
  pest or weed control at 250 g/ha: 0%
[7]; Commelina virginica, pre-emergence, Preemergence, 1000 g ai/ha
  pest or weed control at 1000 g/ha: 0%
[7]; Preemergence, 125 g ai/ha
  Dayflower, VA plant response rating: 0
[7]; Preemergence, 250 g ai/ha
  Dayflower, VA plant response rating: 0
[8]; 31 g ai/ha
  pest or weed control at 31 g/ha: 0%
[8]; 62 g ai/ha
  pest or weed control at 62 g/ha: 0%
[8]; 125 g ai/ha
  pest or weed control at 125 g/ha: 0%
[8]; 250 g ai/ha
  pest or weed control at 250 g/ha: 0%
[9]; Bidens pilosa, pre-emergence, 1000 g ai/ha
  pest or weed control at 1000 g/ha: 90%
[9]; 125 g ai/ha
  Beggarticks plant response rating: 0
[9]; 250 g ai/ha
  Beggarticks plant response rating: 23
[10]; Amaranthus palmeri, post-emergence, Postemergence, 31 g ai/ha
  pest or weed control at 31 g/ha: 40%
[10]; Amaranthus palmeri, post-emergence, Postemergence, 62 g ai/ha
  pest or weed control at 62 g/ha: 60%
[10]; Amaranthus palmeri, post-emergence, Postemergence, 125 g ai/ha
  pest or weed control at 125 g/ha: 75%
[10]; Amaranthus palmeri, post-emergence, Postemergence, 250 g ai/ha
  pest or weed control at 250 g/ha: 95%
[10]; 125 g ai/ha
  Pigweed, Palmer plant response rating: 86
[10]; 250 g ai/ha
  Pigweed, Palmer plant response rating: 95
[11]; 31 g ai/ha
  pest or weed control at 31 g/ha: 0%
[11]; 62 g ai/ha
  pest or weed control at 62 g/ha: 0%
[11]; 125 g ai/ha
  pest or weed control at 125 g/ha: 0%
[11]; 250 g ai/ha
  pest or weed control at 250 g/ha: 0%
[12]; Euphorbia heterophylla, post-emergence, Postemergence, 31 g ai/ha, read-out: Plant response rating, Poinsettia, Wild
  pest or weed control at 31 g/ha: 0%
[12]; Euphorbia heterophylla, post-emergence, Postemergence, 62 g ai/ha, read-out: Plant response rating, Poinsettia, Wild
  pest or weed control at 62 g/ha: 0%
[12]; Euphorbia heterophylla, post-emergence, Postemergence, 125 g ai/ha, read-out: Plant response rating, Poinsettia, Wild
  pest or weed control at 125 g/ha: 0%
[12]; Euphorbia heterophylla, post-emergence, Postemergence, 250 g ai/ha, read-out: Plant response rating, Poinsettia, Wild
  pest or weed control at 250 g/ha: 0%
[12]; 125 g ai/ha
  Poinsettia, Wild plant response rating: 80
[12]; 250 g ai/ha
  Poinsettia, Wild plant response rating: 23

## Fc1ccccc1NN=C(c1ccccc1)c1c[nH]nc1-c1cc(Cl)cc(Cl)c1 [Compound 57]
[1]
  Plant response rating, Barnyardgrass: 0

## Clc1cc(Cl)cc(-c2n[nH]cc2C(=NNc2ccccc2Cl)c2ccccc2)c1 [Compound 66]
[1]
  Plant response rating, Barnyardgrass: 0
